The values below come from patent US20260028364A1, “CATIONIC CHROMENONES AND THEIR USE IN ONCOLOGY” (FLORATEK PHARMA S.A., priority 2022, published 2026).

Broadly, the IC50 is the concentration needed to halve the response being measured. Low readings indicate greater potency in that assay, high ones weaker potency in that assay.

What all share (assay type): cell-based
In one experiment the test system is Wnt/Beta-Catenin. Nature of the experiment: SelectScreen CellSensor pathway inhibition, Wnt/Beta-Catenin. Conditions: LEF-TCF-bla HCT116, no stimulus (constitutively activated). How it is done: (§1) Inhibition of various cellular pathways known to be involved in malignancy was tested using the SelectScreen Cell-based Pathway Profiling GeneBLAzer™ cell signaling pathway specific CellSensor™ cell lines ((Thermo Fisher). The assay is based on a beta-lactamase reporter activity which is modulated and can be measured quantitatively and selectively with the LiveBLAzer™-FRET B/G Loading Substrate. SelectScreen Cell-Based Pathway Profiling Service uses XLfit from IDBS. The dose response curve is curve fit to model number 205 (sigmoidal dose-response model). Custom logic was built by Thermo Fisher for the data analysis tool to address the different compound characteristics that can be observed with functional assays.
Wnt/Beta-Catenin—LEF-TCF-bla HCT116—Inhibitor Screen, Constitutively Activated
LEF-TCF-bla HCT116 cells are thawed and resuspended in Assay Media (OPTI-MEM, 0.5% dialyzed FBS, 0.1 mM NEAA, 1 mM Sodium Pyruvate, 100 U/mL/100 μg/mL Pen/Strep) to a concentration of 312,500 cells/mL. 32 μL of cell suspension is added to each well of a 384-well Poly-D-Lysine assay plate. Cells in Assay Media are incubated for 16-24 hours in the plate at 37° C./5% CO2 in a humidified incubator. 4 μL of a 10× serial dilution of ICG-001 (control inhibitor starting concentration, 25,000 nM) or compounds are added to appropriate wells of the plate. […] The plate is read on a fluorescence plate reader.

The target in experiment [1] is Toll-like Receptor (TLR4). In words: SelectScreen CellSensor pathway inhibition, Toll-like Receptor (TLR4). To be noted: NFkB-bla THP-1, stimulus LPS. As to the method:
as §1
Toll-like Receptor (TLR4)—NFKB-bla THP-1—Inhibitor Screen, Activated by LPS
NFKB-bla THP-1 cells are thawed and resuspended in Assay Media (RPMI, 0.5% dialyzed FBS, 0.1 mM NEAA, 1 mM Sodium Pyruvate, 100 U/mL/[…] Pen/Strep) to a concentration of 625,000 cells/mL. 32 μL of cell suspension is added to each well of a 384-well TC-Treated assay plate. Cells in Assay Media are incubated for 16-24 hours in the plate at 37° C./5% CO2 in a humidified incubator. […] The plate is read on a fluorescence plate reader.

For a further experiment, the system named is Oxidative Stress. In words: SelectScreen CellSensor pathway inhibition, Oxidative Stress. To be noted: ARE-bla HepG2, stimulus tBHQ. As to the method: as §1
Oxidative Stress—ARE-bla HepG2—Inhibitor Screen, Activated by tBHQ
ARE-bla HepG2 cells are thawed and resuspended in Assay Media (DMEM, 10% dialyzed FBS, 25 mM HEPES pH 7.3, 0.1 mM NEAA, 100 U/mL/100 μg/mL Pen/Strep) to a concentration of 375,000 cells/mL. 32 μL of cell suspension is added to each well of a 384-well Poly-D-Lysine assay plate. Cells in Assay Media are incubated for 16-24 hours in the plate at 37° C./5% CO2 in a humidified incubator. […] The plate is read on a fluorescence plate reader.

A further experiment concerns NFKB. Nature of the experiment: SelectScreen CellSensor pathway inhibition, NFKB. To be noted: NFKB-bla Jurkat, stimulus TNF-alpha. As to the method:
as §1
NFKB—NFKB-bla Jurkat—Inhibitor Screen, Activated by TNF-Alpha
NFKB-bla Jurkat cells are thawed and resuspended in Assay Media (DMEM, 10% dialyzed FBS, 25 mM HEPES pH 7.3, 0.1 mM NEAA, 100 U/mL/100 μg/mL Pen/Strep) to a concentration of 625,000 cells/mL. […] 4 μL of 10×control activator TNF-alpha at the pre-determined EC80 concentration is added to wells containing the control inhibitor or compounds.
The plate is incubated for 5 hours at 37° C./5% CO2 in a humidified incubator. […] The plate is read on a fluorescence plate reader.

The subject of a further experiment is JAK/STAT. In words: SelectScreen CellSensor pathway inhibition, JAK/STAT. To be noted: ISRE-bla Jurkat, stimulus IFN-alpha. How it is done: as §1
JAK/STAT—ISRE-bla HEK 293T—Inhibitor Screen, Activated by IFN-Alpha
ISRE-bla HEK 293T cells are thawed and resuspended in Assay Media (OPTI-MEM, 0.5% dialyzed FBS, 0.1 mM NEAA, 1 mM Sodium Pyruvate, 100 U/mL/[…] Pen/Strep) to a concentration of 625,000 cells/mL. 32 μL of cell suspension is added to each well of a 384-well TC-Treated assay plate. Cells in Assay Media are incubated for 16-24 hours in the plate at 37° C./5% CO2 in a humidified incubator. […] 4 μL of 10× control activator IFN-alpha at the pre-determined EC80 concentration is added to wells containing the control inhibitor or compounds. […] The plate is read on a fluorescence plate reader.

`O=C1[C@H](Cc2ccc(O)cc2)N2C(=O)CCN(C(=O)NCc3ccccc3)[C@H]2CN1Cc1cccc2ccccc12` [ICG-001, reference compound] showed an IC50 with Wnt/Beta-Catenin of 1.83 µM. Turning to `Cn1cc(C2=C(c3cn(CCCSC(=N)N)c4ccccc34)C(=O)NC2=O)c2ccccc21` [Ro-31-8220, reference compound], the IC50 in experiment [1] amounted to 0.46 µM; in the experiment with Oxidative Stress it was 1.67 µM. With `CC1=C(CO)C(=O)O[C@@H]([C@@H](C)[C@H]2CC[C@H]3[C@@H]4C[C@H]5O[C@]56[C@@H](O)C=CC(=O)[C@]6(C)[C@H]4CC[C@]23C)C1` [Withaferin A, reference compound], the IC50 with NFKB stood at 0.24 µM. In the experiment on JAK/STAT, JAK Inhibitor I [reference compound] yielded an IC50 of 0.019 µM.
